Target: PI3K (p110α/p85α) (Homo sapiens (Human), UniProt P42336)
Assay: PI3K HTRF enzyme assay, p110α/p85α
Type: biochemical
Settings: read-out: % inhibition @ 500 nM p110α; compound at 500 nM, 10 μM ATP
Protocol: Recombinant PI3K (p110α/p85α) and PI3K (p110β/p85α) were from Millipore. […] Briefly, the compounds of interest dissolved in 100% DMSO were dispensed in all wells, following which the mixture of PIP2 and enzyme was added. PI3K (p110α/p85α) and PI3K (p110β/p85α) enzyme reactions were initiated in the presence of 10 μM and 100 μM ATP, respectively, and incubated for 30 min at room temperature. STOP solution prepared 2 hours prior to use was added to stop reactions, and mixed well. Detection solution prepared 2 hours prior to use was added, and incubated at room temperature for 17 hours in the dark. […] HTRF ration was calculated as follows: […]

PI3K (p110α/p85α), sequence (P42336 whole entry, species assumed): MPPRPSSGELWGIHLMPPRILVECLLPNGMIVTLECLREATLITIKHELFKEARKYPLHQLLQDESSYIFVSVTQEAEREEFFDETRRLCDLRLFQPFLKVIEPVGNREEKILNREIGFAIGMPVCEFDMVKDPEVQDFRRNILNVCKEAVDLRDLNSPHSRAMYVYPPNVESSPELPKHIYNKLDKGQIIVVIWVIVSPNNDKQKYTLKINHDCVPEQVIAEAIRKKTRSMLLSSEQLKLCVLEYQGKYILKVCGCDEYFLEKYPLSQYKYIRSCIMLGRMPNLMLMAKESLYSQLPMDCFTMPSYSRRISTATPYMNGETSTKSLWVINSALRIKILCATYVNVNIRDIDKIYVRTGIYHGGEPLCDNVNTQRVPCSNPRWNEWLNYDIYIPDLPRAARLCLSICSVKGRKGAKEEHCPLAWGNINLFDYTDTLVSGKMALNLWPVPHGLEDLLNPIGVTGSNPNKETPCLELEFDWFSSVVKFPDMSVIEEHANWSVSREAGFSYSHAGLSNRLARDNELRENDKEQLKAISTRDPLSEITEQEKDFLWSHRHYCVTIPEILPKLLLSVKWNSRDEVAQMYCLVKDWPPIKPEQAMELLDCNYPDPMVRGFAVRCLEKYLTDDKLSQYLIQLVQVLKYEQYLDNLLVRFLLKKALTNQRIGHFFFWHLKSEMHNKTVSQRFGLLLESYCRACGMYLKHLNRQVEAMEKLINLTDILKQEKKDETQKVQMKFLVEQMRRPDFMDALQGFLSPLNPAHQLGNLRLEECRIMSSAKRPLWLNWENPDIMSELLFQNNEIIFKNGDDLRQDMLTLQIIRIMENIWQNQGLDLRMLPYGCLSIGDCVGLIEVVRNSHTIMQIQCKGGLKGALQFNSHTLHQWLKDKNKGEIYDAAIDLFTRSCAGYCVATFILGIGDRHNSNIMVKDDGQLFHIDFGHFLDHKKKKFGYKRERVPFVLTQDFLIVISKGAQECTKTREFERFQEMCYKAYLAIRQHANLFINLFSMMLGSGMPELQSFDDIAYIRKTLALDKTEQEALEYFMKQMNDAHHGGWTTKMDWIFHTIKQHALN
PI3K (p110α/p85α), sequence (P27986 whole entry partner, species assumed): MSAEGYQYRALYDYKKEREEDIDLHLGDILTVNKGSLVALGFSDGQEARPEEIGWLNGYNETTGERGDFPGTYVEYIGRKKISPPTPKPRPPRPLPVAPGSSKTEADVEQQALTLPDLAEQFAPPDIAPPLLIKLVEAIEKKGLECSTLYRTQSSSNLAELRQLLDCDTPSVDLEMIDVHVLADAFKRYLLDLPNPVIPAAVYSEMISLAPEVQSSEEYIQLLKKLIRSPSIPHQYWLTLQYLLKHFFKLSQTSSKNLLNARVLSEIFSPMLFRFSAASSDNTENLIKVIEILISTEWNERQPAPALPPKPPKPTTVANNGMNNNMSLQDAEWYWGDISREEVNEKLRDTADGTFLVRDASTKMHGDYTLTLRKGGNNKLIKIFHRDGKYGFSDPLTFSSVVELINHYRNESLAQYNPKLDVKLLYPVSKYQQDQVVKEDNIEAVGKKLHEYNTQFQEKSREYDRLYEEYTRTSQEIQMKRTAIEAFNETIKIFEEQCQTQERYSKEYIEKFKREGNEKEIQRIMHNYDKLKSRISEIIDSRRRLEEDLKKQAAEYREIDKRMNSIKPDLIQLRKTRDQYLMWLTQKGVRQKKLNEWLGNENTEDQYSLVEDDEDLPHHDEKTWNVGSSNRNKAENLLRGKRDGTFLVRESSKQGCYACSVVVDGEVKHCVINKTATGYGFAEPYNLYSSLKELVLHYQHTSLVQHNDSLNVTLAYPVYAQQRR

Row | inhibition at 0.5 µM [%] | SMILES
1 | 67.9 | CSc1cnc(-c2ccc(NC(=O)Nc3ccncc3)cc2)nc1N1CCOCC1 [MTR-0462, 1-[4-(5-Methylsulfanyl-4-morpholin-4-yl-pyrimidin-2-yl)-phenyl]-3-pyridin-4-yl-urea]
2 | 83.7 | CSc1cnc(-c2ccc(NC(=O)Nc3ccc(C(N)=O)cc3)cc2)nc1N1CCOCC1 [MTR-0267, 4-{3-[4-(5-Methylsulfanyl-4-morpholin-4-yl-pyrimidin-2-yl)-phenyl]-ureido}-benzamide]
3 | 76.8 | COc1cnc(-c2ccc(NC(=O)Nc3ccc(C(N)=O)cc3)cc2)nc1N1CCOCC1 [MTR-0282, 4-{3-[4-(5-Methoxy-4-morpholin-4-yl-pyrimidin-2-yl)-phenyl]-ureido}-benzamide]
4 | 43.8 | CSc1cnc(-c2ccc(NC(=O)Nc3cccnc3)cc2)nc1N1CCOCC1 [MTR-0225, 1-[4-(5-Methylsulfanyl-4-morpholin-4-yl-pyrimidin-2-yl)-phenyl]-3-pyridin-3-yl-urea]
5 | 101 | COc1cnc(-c2ccc(NC(=O)Nc3ccc(F)c(F)c3)cc2)nc1N1CCOCC1 [MTR-0165, 1-(3,4-Difluoro-phenyl)-3-[4-(5-methoxy-4-morpholin-4-yl-pyrimidin-2-yl)-phenyl]-urea]
6 | 52.6 | NC(=O)c1ccc(NC(=O)Nc2ccc(-c3ncc(OCCN4CCOCC4)c(N4CCOCC4)n3)cc2)cc1 [MTR-0456, 4-(3-{4-[4-Morpholin-4-yl-5-(2-morpholin-4-yl-ethoxy)-pyrimidin-2-yl]-phenyl}-ureido)-benzamide]
7 | 71.5 | CCOc1cnc(-c2ccc(NC(=O)Nc3ccc(S(C)(=O)=O)cc3)cc2)nc1N1CCOCC1 [MTR-0424, 1-[4-(5-Ethoxy-4-morpholin-4-yl-pyrimidin-2-yl)-phenyl]-3-(4-methanesulfonyl-phenyl)-urea]
8 | 101 | CCOc1cnc(-c2ccc(NC(=O)Nc3ccc(NC(C)=O)cc3)cc2)nc1N1CCOCC1 [MTR-0368, N-(4-{3-[4-(5-Ethoxy-4-morpholin-4-yl-pyrimidin-2-yl)-phenyl]-ureido}-phenyl)-acetamide]
9 | 64 | COc1cnc(-c2ccc(NC(=O)Nc3ccc(C(N)=O)cc3)c(F)c2)nc1N1CCOCC1 [MTR-0385, 4-{3-[2-Fluoro-4-(5-methoxy-4-morpholin-4-yl-pyrimidin-2-yl)-phenyl]-ureido}-benzamide]
10 | 60 | CCOC(=O)c1nc(-c2ccc(NC(=O)Nc3ccc(C(N)=O)cc3)cc2)nc(N2CCOCC2)c1OCC [MTR-0244, 2-{4-[3-(4-Carbamoyl-phenyl)-ureido]-phenyl}-5-ethoxy-6-morpholin-4-yl-pyrimidine-4-carboxylic acid ethyl ester]
11 | 58.4 | COc1cnc(-c2ccc(NC(=O)Nc3cccc(NC(C)=O)c3)cc2)nc1N1CCOCC1 [MTR-0426, N-(3-{3-[4-(5-Methoxy-4-morpholin-4-yl-pyrimidin-2-yl)-phenyl]-ureido}-phenyl)-acetamide]
12 | 95.9 | COc1cnc(-c2ccc(NC(=O)Nc3ccc(C(=O)N4CCOCC4)cc3)cc2)nc1N1CCOCC1 [MTR-0382, 1-[4-(5-Methoxy-4-morpholin-4-yl-pyrimidin-2-yl)-phenyl]-3-[4-(morpholine-4-carbonyl)-phenyl]urea]
13 | 90.8 | CCOc1cnc(-c2ccc(NC(=O)Nc3ccc(C(N)=O)cc3)cc2)nc1N1CCOCC1 [MTR-0323, 4-{3-[4-(5-Ethoxy-4-morpholin-4-yl-pyrimidin-2-yl)-phenyl]-ureido}-benzamide]
14 | 78.4 | COc1cnc(-c2ccc(NC(=O)Nc3ccc(N4CCOCC4=O)cc3)cc2F)nc1N1CCOCC1 [MTR-0406, 1-[3-Fluoro-4-(5-methoxy-4-morpholin-4-yl-pyrimidin-2-yl)-phenyl]-3-[4-(3-oxo-morpholin-4-yl)-phenyl]-urea]
15 | 46.6 | CSc1c(-c2ccncc2)nc(-c2ccc(NC(=O)Nc3ccc(C(N)=O)cc3)cc2)nc1N1CCOCC1 [MTR-0392, 4-{3-[4-(5-Methylsulfanyl-4-morpholin-4-yl-6-pyridin-4-yl-pyrimidin-2-yl)-phenyl]-ureido}-benzamide]
16 | 70.5 | CCOc1cnc(-c2ccc(NC(=O)Nc3ccc(NS(C)(=O)=O)cc3)cc2)nc1N1CCOCC1 [MTR-0394, N-(4-{3-[4-(5-Ethoxy-4-morpholin-4-yl-pyrimidin-2-yl)-phenyl]-ureido}-phenyl)-methanesulfonamide]
17 | 101 | CSc1cnc(-c2ccc(NC(=O)Nc3ccc(NC(C)=O)cc3)cc2)nc1N1CCOCC1 [MTR-0380, N-(4-{3-[4-(5-Methylsulfanyl-4-morpholin-4-yl-pyrimidin-2-yl)-phenyl]-ureido}-phenyl)-acetamide]

Second part, the compound before the results:

Row | SMILES | inhibition at 0.5 µM [%]
18 | O=C(Nc1ccc(-c2ncc(OCCN3CCOCC3)c(N3CCOCC3)n2)cc1)Nc1ccc(N2CCOCC2=O)cc1 [MTR-0455, 1-{4-[4-Morpholin-4-yl-5-(2-morpholin-4-yl-ethoxy)-pyrimidin-2-yl]-phenyl}-3-[4-(3-oxo-morpholin-4-yl)-phenyl]-urea] | 48.9
19 | CCOC(=O)c1nc(-c2ccc(NC(=O)Nc3ccccc3)cc2)nc(N2CCOCC2)c1OCC [MTR-0069, 5-Ethoxy-6-morpholin-4-yl-2-[4-(3-phenyl-ureido)-phenyl]-pyrimidine-4-carboxylic acid ethyl ester] | 53.8
20 | CSc1cnc(-c2ccc(NC(=O)Nc3ccc(N4CCOCC4)cc3)cc2)nc1N1CCOCC1 [MTR-0248, 1-[4-(5-Methylsulfanyl-4-morpholin-4-yl-pyrimidin-2-yl)-phenyl]-3-(4-morpholin-4-yl-phenyl)-urea] | 45.8
21 | CSc1c(Cl)nc(-c2ccc(NC(=O)Nc3ccc(N4CCN(C)CC4)cc3)cc2)nc1N1CCOCC1 [MTR-0215, 1-[4-(4-Chloro-5-methylsulfanyl-6-morpholin-4-yl-pyrimidin-2-yl)-phenyl]-3-[4-(4-methyl-piperazin-1-yl)-phenyl]-urea] | 53.6
22 | CSc1c(Cl)nc(-c2ccc(NC(=O)Nc3ccncc3)cc2)nc1N1CCOCC1 [MTR-0469, 1-[4-(4-Chloro-5-methylsulfanyl-6-morpholin-4-yl-pyrimidin-2-yl)-phenyl]-3-pyridin-4-yl-urea] | 81.7
23 | CCOC(=O)c1nc(-c2ccc(NC(=O)Nc3ccc(S(N)(=O)=O)cc3)cc2)nc(N2CCOCC2)c1OCC [MTR-0273, 5-Ethoxy-6-morpholin-4-yl-2-{4-[3-(4-sulfamoyl-phenyl)-ureido]-phenyl}-pyrimidine-4-carboxylic acid ethyl ester] | 50.2
24 | CSc1c(N2CCOCC2)nc(-c2ccc(NC(=O)Nc3ccccc3)cc2)nc1N1CCN(S(C)(=O)=O)CC1 [MTR-0173, 1-{4-[4-(4-Methanesulfonyl-piperazin-1-yl)-5-methylsulfanyl-6-morpholin-4-yl-pyrimidin-2-yl]-phenyl}-3-phenyl-urea] | 82.1
25 | CSc1c(Cl)nc(-c2ccc(NC(=O)Nc3ccc(C(=O)N4CCC(N(C)C)CC4)cc3)cc2)nc1N1CCOCC1 [MTR-0436, 1-[4-(4-Chloro-5-methylsulfanyl-6-morpholin-4-yl-pyrimidin-2-yl)-phenyl]-3-[4-(4-dimethylamino-piperidine-1-carbonyl)-phenyl]-urea] | 71.5
26 | CCOc1c(C(=O)N2CCOCC2)nc(-c2ccc(NC(=O)Nc3ccccc3)cc2)nc1N1CCOCC1 [MTR-0124, 1-{4-[5-Ethoxy-4-(morpholine-4-carbonyl)-6-morpholin-4-yl-pyrimidin-2-yl]-phenyl}-3-phenyl-urea] | 49.1
27 | CSc1c(-c2cccnc2)nc(-c2ccc(NC(=O)Nc3ccc(N4CCOCC4=O)cc3)cc2)nc1N1CCOCC1 [MTR-0457, 1-[4-(5-Methylsulfanyl-4-morpholin-4-yl-6-pyridin-3-yl-pyrimidin-2-yl)-phenyl]-3-[4-(3-oxo-morpholin-4-yl)-phenyl]-urea] | 47.4
28 | CSc1c(Cl)nc(-c2ccc(NC(=O)Nc3ccc(N4CCOCC4)c(F)c3)cc2)nc1N1CCOCC1 [MTR-0211, 1-[4-(4-Chloro-5-methylsulfanyl-6-morpholin-4-yl-pyrimidin-2-yl)-phenyl]-3-(3-fluoro-4-morpholin-4-yl-phenyl)-urea] | 42
29 | CCOC(=O)c1nc(-c2ccc(NC(=O)Nc3ccc(N4CCOCC4=O)cc3)cc2F)nc(N2CCOCC2)c1OCC [MTR-0322, 5-Ethoxy-2-(2-fluoro-4-{3-[4-(3-oxo-morpholin-4-yl)-phenyl]-ureido}-phenyl)-6-morpholin-4-yl-pyrimidine-4-carboxylic acid ethyl ester] | 44.2
30 | CSc1c(-c2ccncc2)nc(-c2ccc(NC(=O)Nc3ccc(N4CCOCC4=O)cc3)cc2)nc1N1CCOCC1 [MTR-0391, 1-[4-(5-Methylsulfanyl-4-morpholin-4-yl-6-pyridin-4-yl-pyrimidin-2-yl)-phenyl]-3-[4-(3-oxo-morpholin-4-yl)-phenyl]-urea] | 51.7
31 | CSc1cnc(-c2ccc(NC(=O)Nc3ccc(N4CCOCC4=O)cc3)cc2F)nc1N1CCOCC1 [MTR-0378, 1-[3-Fluoro-4-(5-methylsulfanyl-4-morpholin-4-yl-pyrimidin-2-yl)-phenyl]-3-[4-(3-oxo-morpholin-4-yl)-phenyl]-urea] | 84.5
32 | CSc1c(Cl)nc(-c2ccc(NC(=O)Nc3ccc(S(N)(=O)=O)cc3)cc2F)nc1N1CCOCC1 [MTR-0412, 4-{3-[4-(4-Chloro-5-methylsulfanyl-6-morpholin-4-yl-pyrimidin-2-yl)-3-fluoro-phenyl]-ureido}-benzenesulfonamide] | 82.7
33 | CSc1c(Cl)nc(-c2ccc(NC(=O)Nc3ccc(S(C)(=O)=O)cc3)cc2)nc1N1CCOCC1 [MTR-0387, 1-[4-(4-Chloro-5-methylsulfanyl-6-morpholin-4-yl-pyrimidin-2-yl)-phenyl]-3-(4-methanesulfonyl-phenyl)-urea] | 83.1

Source: patent US9315491B2 (DEVELOPMENT CENTER FOR BIOTECHNOLOGY, priority 2009, dated 2016)
